Data set [1] has as its target Eukaryotic translation initiation factor 4E (Mus musculus, UniProt P63073). In words: eIF4E–eIF4G protein interaction inhibitors, dose response, biochemical, TR-FRET (AID 855).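 Further: potency for disrupting eIF4E binding to eIF4GI seen as loss of FRET.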 The format is functional.
The subject of data set [2] is HEK293. In words: NOD1 signaling inhibitors, primary screen, cell-based, luminescence, uHTS (AID 1578). The format is functional. Particulars: Homo sapiens.
Data set [3] can be described thus: Luminescence Cell-Based Dose Confirmation HTS to Identify Activators of 5'UTR Stem-Loop Driven Alpha-Synuclein mRNA Translation in H4 Neuroglioblastoma Cells. [Related pubchem assays: 1829 (Project Summary), 1814 (Primary HTS)]. Type of data set: functional.
The next data set has as its system H4. In words: Luminescence Cell-Based Dose Response HTS to Identify Activators of 5'UTR Stem-Loop Driven Prion Protein mRNA Translation in H4 Neuroglioblastoma Cells. [Related pubchem assays: 1829 (Project Summary), 1814 (Primary HTS)]. Type of data set: functional. Particulars: Homo sapiens.
The subject of data set [4] is HEK293. The data set can be described thus: cells. As to conditions: Homo sapiens. The format is functional, cell-based.
A short description of data set [5]: Luminescence Cell-Based Dose Response HTS to Identify Activators of Luciferase Translation or Activity in H4 […] Cells. [Related pubchem assays: 1829 (Project Summary), 1814 (Primary HTS)]. The format is functional.
Data set [6] has as its system HEK293. The data set can be described thus: NOD2 signaling inhibitors in MDP-stimulated cells, cell-based, uHTS, luminescence (AID 2001). As to conditions: Homo sapiens. The format is functional.
In data set [7] the test system is HEK293. The data set can be described thus: cells. The format is functional, cell-based. Particulars: Homo sapiens. This is another data set of the same source.
Data set [8] has as its target Peroxisome proliferator-activated receptor gamma/Nuclear receptor coactivator 3 (Homo sapiens, UniProt P37231). The data set can be described thus: TR-FRET dose response biochemical High Throughput Screening assay for agonists of the steroid receptor coactivator 3 (SRC-3) recruitment by the peroxisome proliferator-activated receptor gamma (PPAR gamma): non-selective agonists. [Related pubchem assays: 1301 (Confirmation screen.), 1048 (Primary screen.)]. The format is functional.

Data set [9] concerns the target Peroxisome proliferator-activated receptor gamma/Nuclear receptor coactivator 2 (Homo sapiens, UniProt P37231). In words: TR-FRET dose response biochemical High Throughput Screening assay for agonists of the steroid receptor coactivator 2 (SRC-2) recruitment by the peroxisome proliferator-activated receptor gamma (PPAR gamma): non-selective agonists. [Related pubchem assays: 1297, 1032 ]. The format is functional.

Data set [10] concerns the target Peroxisome proliferator-activated receptor gamma/Nuclear receptor coactivator 1 (Homo sapiens, UniProt P37231). In words: TR-FRET dose response biochemical High Throughput Screening assay for agonists of the steroid receptor coactivator 1 (SRC-1) recruitment by the peroxisome proliferator-activated receptor gamma (PPAR gamma): non-selective agonists. [Related pubchem assays (depositor defined):AID1300, AID1808, AID504735, AID631]. Type of data set: protein assay.

The target in data set [11] is DNA dC->dU-editing enzyme APOBEC-3G (Homo sapiens, UniProt Q9HC16). The data set can be described thus: Dose Response confirmation of small molecule APOBEC3G DNA Deaminase Inhibitors via a fluorescence-based single-stranded DNA deaminase assay. [Related pubchem assays (depositor defined):AID493012, AID493028]. The format is functional.
Data set [12] concerns the target T1, High affinity choline transporter 1 (Homo sapiens, UniProt Q9GZV3).
T1 sequence (Q9GZV3 whole entry): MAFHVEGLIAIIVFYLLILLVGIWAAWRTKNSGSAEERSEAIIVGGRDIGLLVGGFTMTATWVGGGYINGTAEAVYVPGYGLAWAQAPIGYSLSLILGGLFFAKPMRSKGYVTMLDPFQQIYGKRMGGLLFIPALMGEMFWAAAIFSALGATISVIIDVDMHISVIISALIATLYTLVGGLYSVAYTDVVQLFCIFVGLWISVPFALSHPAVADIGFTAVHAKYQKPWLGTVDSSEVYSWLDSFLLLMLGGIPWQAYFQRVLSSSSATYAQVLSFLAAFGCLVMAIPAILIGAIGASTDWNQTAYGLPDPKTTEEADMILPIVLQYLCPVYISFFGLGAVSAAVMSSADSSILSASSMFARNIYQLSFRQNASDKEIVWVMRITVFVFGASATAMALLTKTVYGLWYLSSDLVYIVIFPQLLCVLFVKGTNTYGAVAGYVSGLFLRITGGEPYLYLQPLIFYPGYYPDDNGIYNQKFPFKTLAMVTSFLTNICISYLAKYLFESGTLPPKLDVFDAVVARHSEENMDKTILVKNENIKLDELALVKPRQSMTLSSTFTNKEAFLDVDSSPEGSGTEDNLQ
In words: CHT inhibitors, dose response, cell-based, 5-point CRC, membrane potential dye (AID 504840). Type of data set: functional.

The next data set has as its target T2, Coagulation factor XII (Homo sapiens, UniProt P00748).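 Further: activated factor XIIa alpha cleaving a fluorogenic AMC peptide substrate; inhibitor potency from loss of enzyme activity.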
T2 sequence (P00748 whole entry): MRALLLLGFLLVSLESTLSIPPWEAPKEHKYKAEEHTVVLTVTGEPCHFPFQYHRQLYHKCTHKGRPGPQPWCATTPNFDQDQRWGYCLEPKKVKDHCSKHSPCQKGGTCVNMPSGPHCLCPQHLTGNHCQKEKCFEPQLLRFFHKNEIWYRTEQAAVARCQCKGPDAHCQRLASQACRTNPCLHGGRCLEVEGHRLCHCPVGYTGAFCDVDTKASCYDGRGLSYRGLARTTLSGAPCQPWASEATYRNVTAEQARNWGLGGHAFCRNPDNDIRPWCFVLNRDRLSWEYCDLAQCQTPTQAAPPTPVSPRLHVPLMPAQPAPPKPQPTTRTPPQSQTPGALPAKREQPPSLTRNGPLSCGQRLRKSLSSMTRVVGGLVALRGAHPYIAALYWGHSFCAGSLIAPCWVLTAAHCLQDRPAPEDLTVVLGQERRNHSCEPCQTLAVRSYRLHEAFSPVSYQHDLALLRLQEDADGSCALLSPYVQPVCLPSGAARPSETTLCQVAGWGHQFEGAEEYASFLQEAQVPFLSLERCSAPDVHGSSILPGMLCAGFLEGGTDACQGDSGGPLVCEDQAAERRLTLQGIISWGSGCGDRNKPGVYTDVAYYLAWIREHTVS
Type of data set: functional.

Data set [13] addresses T3, Carboxy-terminal domain RNA polymerase II polypeptide A small phosphatase 1 (Homo sapiens, UniProt Q9GZU7).
T3 sequence (Q9GZU7 whole entry): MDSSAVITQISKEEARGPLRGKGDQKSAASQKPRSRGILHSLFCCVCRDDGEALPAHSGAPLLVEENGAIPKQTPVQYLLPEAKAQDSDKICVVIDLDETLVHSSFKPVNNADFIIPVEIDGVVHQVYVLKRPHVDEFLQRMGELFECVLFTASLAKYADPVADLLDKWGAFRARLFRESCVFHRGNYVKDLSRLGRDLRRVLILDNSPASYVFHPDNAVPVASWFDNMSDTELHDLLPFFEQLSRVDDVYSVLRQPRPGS
The data set can be described thus: inhibitors of CTDSP1, concentration-response testing, biochemical assay, absorbance-based, actives from ultra-high-throughput screening (AID 540297). The format is functional.

The target in another data set is Cytochrome P450 3A4 (Homo sapiens, UniProt P08684).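 Further: CYP3A4 tested as one member of a cytochrome P450 panel screen.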
A further data set addresses Cytochrome P450 2C9 (Homo sapiens, UniProt P11712).
Data set [14] in a line: cells. The format is functional, cell-based.
Data set [15] can be described thus: cells. The format is functional, cell-based. The source holds these as a separate data set.
The next data set has as its target Cytochrome P450 2C19 (Homo sapiens, UniProt P33261). The data set can be described thus: Cytochrome panel assay with activity outcomes. Panel member name: p450-cyp2c19 Compounds with AC50 equal or less than 10 uM are considered active. The format is functional. As to conditions: read-out: AC50.
The target in data set [16] is T4, Heat shock factor protein 1 (Mus musculus, UniProt P38532).
T4 sequence (P38532 whole entry): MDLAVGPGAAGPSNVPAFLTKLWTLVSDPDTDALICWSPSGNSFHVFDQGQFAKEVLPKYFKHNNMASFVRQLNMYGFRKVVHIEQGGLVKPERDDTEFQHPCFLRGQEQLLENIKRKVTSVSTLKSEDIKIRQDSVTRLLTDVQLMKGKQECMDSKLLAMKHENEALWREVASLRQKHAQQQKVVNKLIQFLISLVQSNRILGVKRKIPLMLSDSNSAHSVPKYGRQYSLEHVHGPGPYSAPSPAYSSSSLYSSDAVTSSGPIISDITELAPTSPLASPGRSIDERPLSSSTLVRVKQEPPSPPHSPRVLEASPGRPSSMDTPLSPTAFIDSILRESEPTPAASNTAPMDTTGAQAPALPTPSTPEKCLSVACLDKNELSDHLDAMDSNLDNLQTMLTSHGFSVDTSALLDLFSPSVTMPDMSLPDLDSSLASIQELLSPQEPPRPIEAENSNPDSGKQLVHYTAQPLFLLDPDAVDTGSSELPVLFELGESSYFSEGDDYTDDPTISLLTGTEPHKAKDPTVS
The data set can be described thus: HSF1 potentiators in luciferase reporter cells, confirmation, cell-based, NIH3T3, luminescence, dose retest (AID 435004).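 Further: stress induced by proteasome inhibitor MG132 added 30 min after compound; luciferase reporter driven by HSF1 response element in NIH3T3 cells; actives raise luminescence as potentiators of the MG132 stress response.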 The format is functional.

Another data set has as its target Trypsin (Sus scrofa, UniProt P00761). The data set can be described thus: porcine trypsin inhibitors, dose response, selectivity assay for Rce1 protease inhibitor project, biochemical, quenched peptide fluorescence, cherry-pick (AID 488789).
A further data set concerns the target T5, CAAX prenyl protease 2 (Saccharomyces cerevisiae S288c, UniProt Q03530).
T5 sequence (Q03530 whole entry): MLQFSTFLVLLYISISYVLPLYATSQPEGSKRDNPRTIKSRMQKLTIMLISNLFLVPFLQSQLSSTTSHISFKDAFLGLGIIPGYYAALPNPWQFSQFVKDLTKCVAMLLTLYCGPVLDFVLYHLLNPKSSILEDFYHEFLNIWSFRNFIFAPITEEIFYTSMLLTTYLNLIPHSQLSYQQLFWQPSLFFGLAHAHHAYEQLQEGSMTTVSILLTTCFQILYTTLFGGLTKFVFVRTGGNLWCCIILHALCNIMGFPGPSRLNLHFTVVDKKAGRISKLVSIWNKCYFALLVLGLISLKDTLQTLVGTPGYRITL
The format is biochemical.

IC50, EC50 and AC50 data for 17 compounds are collected here from ChEMBL document CHEMBL1201862, “PubChem BioAssay data set” (2004).

Molecules are shown by their SMILES. The source made the active and inactive calls.

Sequence of Peroxisome proliferator-activated receptor gamma/Nuclear receptor coactivator 2 (P37231 whole entry): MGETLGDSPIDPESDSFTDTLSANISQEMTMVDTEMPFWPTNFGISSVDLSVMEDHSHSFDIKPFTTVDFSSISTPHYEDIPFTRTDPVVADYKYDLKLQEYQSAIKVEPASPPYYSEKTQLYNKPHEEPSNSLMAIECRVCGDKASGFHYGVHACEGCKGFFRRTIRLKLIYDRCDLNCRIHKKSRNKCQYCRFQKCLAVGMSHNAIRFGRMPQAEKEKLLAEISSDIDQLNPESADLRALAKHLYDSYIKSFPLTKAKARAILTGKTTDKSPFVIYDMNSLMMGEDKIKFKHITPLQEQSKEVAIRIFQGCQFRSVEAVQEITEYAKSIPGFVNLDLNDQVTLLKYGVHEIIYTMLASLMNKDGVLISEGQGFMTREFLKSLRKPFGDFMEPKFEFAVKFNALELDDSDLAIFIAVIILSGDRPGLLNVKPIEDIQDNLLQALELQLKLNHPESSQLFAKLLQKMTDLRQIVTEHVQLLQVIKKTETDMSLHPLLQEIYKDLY
Sequence of Peroxisome proliferator-activated receptor gamma/Nuclear receptor coactivator 2 (Q15596 whole entry, further chain): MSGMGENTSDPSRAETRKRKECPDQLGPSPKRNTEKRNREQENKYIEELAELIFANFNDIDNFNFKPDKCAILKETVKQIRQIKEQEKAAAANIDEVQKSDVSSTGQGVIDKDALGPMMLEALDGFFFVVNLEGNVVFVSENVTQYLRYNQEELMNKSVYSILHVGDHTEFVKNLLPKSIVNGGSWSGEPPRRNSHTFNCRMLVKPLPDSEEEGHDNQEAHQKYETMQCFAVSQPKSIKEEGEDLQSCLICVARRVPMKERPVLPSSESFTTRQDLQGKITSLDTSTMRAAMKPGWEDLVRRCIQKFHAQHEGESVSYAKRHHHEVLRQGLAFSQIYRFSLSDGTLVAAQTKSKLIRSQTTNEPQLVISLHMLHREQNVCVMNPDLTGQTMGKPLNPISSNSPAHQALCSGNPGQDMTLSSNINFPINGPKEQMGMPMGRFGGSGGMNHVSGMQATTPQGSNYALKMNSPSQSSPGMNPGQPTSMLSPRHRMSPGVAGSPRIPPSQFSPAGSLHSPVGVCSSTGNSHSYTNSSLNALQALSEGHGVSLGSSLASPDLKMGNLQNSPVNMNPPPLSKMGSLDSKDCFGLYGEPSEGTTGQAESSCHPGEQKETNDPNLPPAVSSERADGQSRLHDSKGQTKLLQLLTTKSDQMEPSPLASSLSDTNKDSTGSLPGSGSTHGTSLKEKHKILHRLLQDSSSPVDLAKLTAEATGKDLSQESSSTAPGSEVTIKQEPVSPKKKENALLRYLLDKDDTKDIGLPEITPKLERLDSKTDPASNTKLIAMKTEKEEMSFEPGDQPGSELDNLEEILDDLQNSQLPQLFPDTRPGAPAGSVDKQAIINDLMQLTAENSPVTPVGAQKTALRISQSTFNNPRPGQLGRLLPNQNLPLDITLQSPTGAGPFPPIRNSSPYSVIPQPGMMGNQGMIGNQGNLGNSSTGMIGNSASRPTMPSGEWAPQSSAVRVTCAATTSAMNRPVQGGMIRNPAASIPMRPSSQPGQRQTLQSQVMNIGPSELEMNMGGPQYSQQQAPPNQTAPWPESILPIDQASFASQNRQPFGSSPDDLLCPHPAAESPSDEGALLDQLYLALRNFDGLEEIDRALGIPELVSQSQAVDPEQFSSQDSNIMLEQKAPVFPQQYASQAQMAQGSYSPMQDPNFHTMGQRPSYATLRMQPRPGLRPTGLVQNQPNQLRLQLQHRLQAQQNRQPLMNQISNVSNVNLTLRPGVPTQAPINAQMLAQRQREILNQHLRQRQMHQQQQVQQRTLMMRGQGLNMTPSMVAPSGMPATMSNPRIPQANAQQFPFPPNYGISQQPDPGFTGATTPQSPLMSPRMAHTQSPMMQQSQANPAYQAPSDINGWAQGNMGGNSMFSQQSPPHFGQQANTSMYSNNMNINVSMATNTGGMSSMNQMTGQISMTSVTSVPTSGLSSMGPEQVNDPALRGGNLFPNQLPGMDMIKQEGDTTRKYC
Sequence of Peroxisome proliferator-activated receptor gamma/Nuclear receptor coactivator 3 (P37231 whole entry): as the sequence (P37231 whole entry) above
Sequence of Peroxisome proliferator-activated receptor gamma/Nuclear receptor coactivator 3 (Q9Y6Q9 whole entry, further chain): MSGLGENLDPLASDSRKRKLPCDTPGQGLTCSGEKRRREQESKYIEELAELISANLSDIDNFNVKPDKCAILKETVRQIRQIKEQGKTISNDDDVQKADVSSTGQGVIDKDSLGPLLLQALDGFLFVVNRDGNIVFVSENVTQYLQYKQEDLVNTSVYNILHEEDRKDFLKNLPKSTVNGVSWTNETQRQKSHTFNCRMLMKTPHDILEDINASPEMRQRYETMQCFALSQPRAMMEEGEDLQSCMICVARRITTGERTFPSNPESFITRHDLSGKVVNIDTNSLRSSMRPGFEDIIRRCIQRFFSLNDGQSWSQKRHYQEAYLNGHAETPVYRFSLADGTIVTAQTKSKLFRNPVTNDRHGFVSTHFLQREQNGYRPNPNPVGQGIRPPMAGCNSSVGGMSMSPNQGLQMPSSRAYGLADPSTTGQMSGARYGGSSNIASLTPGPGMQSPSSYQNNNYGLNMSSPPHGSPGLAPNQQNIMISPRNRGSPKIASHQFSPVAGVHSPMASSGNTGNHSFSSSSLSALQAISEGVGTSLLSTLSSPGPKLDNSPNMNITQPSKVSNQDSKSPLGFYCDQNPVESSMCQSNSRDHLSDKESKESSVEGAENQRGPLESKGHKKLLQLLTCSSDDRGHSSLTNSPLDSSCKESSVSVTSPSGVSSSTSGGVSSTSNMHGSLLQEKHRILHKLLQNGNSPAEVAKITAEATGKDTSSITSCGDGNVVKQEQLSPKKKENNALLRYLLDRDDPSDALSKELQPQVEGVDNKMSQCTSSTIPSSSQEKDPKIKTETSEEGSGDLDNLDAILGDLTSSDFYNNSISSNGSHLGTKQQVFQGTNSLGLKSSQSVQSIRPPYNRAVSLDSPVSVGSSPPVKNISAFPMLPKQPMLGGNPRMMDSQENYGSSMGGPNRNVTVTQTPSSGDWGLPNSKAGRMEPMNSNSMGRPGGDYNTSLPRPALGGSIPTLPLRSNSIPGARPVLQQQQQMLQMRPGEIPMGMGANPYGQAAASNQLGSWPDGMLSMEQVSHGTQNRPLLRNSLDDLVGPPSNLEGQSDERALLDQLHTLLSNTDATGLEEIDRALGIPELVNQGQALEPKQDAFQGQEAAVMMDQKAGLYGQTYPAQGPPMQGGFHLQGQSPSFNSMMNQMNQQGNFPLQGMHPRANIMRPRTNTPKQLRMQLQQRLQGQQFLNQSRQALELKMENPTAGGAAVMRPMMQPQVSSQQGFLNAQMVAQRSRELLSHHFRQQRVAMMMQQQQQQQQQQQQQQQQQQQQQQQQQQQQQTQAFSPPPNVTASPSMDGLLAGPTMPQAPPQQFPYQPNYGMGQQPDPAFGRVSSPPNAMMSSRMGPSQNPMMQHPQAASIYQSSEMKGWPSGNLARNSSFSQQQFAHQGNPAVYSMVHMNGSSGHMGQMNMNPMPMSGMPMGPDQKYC
Sequence of Eukaryotic translation initiation factor 4E (P63073 whole entry): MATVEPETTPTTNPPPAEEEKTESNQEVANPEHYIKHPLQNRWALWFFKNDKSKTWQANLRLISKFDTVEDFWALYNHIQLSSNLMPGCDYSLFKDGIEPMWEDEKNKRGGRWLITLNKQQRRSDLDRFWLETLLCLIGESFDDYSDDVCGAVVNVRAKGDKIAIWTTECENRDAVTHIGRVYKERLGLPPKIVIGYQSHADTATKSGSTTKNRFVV
Sequence of Cytochrome P450 2C9 (P11712 whole entry): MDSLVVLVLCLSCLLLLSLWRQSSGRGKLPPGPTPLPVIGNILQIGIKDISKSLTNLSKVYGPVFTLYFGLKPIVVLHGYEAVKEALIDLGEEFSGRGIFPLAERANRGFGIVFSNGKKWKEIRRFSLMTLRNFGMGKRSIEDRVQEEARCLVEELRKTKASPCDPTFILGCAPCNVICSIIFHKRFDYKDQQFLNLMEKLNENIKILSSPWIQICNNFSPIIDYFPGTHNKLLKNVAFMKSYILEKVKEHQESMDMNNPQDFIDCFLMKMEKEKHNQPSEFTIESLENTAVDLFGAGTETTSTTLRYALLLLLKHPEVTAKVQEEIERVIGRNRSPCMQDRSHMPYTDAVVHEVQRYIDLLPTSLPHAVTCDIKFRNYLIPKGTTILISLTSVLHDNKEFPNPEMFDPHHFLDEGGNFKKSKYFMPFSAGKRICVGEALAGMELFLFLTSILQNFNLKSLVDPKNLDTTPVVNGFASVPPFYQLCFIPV
Sequence of Trypsin (P00761 whole entry): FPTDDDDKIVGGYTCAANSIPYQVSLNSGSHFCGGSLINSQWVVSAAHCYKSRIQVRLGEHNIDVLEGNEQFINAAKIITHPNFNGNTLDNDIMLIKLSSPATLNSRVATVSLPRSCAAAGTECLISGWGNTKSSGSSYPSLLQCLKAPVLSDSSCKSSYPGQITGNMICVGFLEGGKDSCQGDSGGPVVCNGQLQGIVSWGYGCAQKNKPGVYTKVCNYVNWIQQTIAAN

Consider `CC(C)c1ccc(C(=O)NCc2ccc(Cl)cc2)cc1`, for which the IC50 in [1] is > 64 µM (inactive).
For `Cc1ccc(C(=O)c2cnc3cc4c(cc3c2S(=O)(=O)c2ccccc2)OCCO4)cc1`, the EC50 with HEK293 [2] was > 20 µM (inactive); in data set [3] it was 6.76 µM (active); in the data set on H4, 7.93 µM (active); in [5], 9.9 µM (active). Also, the results for the concentration for half-maximal inhibition (IC50) in the data set on HEK293 [4], in the data set with HEK293 [6] and with HEK293 [7] were 14.7 µM (active), 12.9 µM (inactive) and > 20 µM (inactive), respectively.
In the case of `NC(=O)CSc1oc(-c2cccs2)nc1S(=O)(=O)c1ccccc1`, the figures for the EC50 in data set [8], in [9] and in data set [10] were > 79.4 µM (not active), 10.8 µM (not active) and 10.9 µM (inactive), respectively.
With `O=C(Nc1cccnc1)c1sc(Nc2ccccc2F)nc1-c1ccccc1`, the figures for the EC50 in data set [8], in data set [9] and in data set [10] were 28.3 µM (not active), 6.83 µM (active) and 6.48 µM (active), respectively.
`COc1ccccc1NS(=O)(=O)c1cc(N)ccc1N1CCCCC1`: in data set [11], the 50% inhibitory concentration (IC50) is 72.5 µM (active).
For the compound `COc1ccc(-c2nc(-c3cccs3)c(-c3cccs3)[nH]2)cc1O`, the EC50 was 79.6 µM (not active) in data set [8], 4.79 µM (active) in data set [9] and 4.8 µM (active) in data set [10]. In addition, in [12], the 50% inhibitory concentration (IC50) is 20 µM (active).
`COC(=O)c1[nH]c(C)c(C(=O)C2=C(O)C(=O)N(CCN(C)C)C2c2cccc(OC)c2OC)c1C` (centres undefined): the IC50 on Coagulation factor XII is > 50 µM (inactive).
With `O=C(NNC(=O)c1cc2cc3ccccc3nc2s1)c1cccc(C(F)(F)F)c1`, in data set [13], the 50% inhibitory concentration (IC50) was 5.86 µM (active). Besides, the concentration at half-maximal activity (AC50) at Cytochrome P450 3A4 was 1.26 µM (inconclusive); at Cytochrome P450 2C9, “inconclusive”.
As to `Cn1c(NCCc2ccccc2)cc(=O)n(C)c1=O`, the IC50 on Coagulation factor XII was > 50 µM (inactive); in “cells [14]” it was > 29.9 µM (inactive). Moreover, the EC50 in “cells [15]” is > 29.9 µM (inactive).
Regarding `CC(=O)NCCNc1nc(-c2ccccc2C)nc2ccccc12`, at Cytochrome P450 2C9, the concentration at half-maximal activity (AC50) result was “inconclusive”.
With `O=C(CCS(=O)(=O)c1cccs1)N1CCCC1`, the figures for the 50% effective concentration (EC50) (in data set [3]; in the data set on H4; in data set [5]) were > 120 µM (not active), 17.8 µM (active) and > 120 µM (not active), respectively. In addition, the IC50 in data set [1] was > 64 µM (inactive).
As for `Cc1ccc(C)c(-n2nc3c4c(ccc3c2O)C(=O)c2ccccc2C4=O)c1`, the EC50 in the data set with HEK293 [2] is 11.1 µM (active). The IC50 in the data set with HEK293 [4] is > 20 µM (inactive); with HEK293 [6] it was 18 µM (inactive); in the data set with HEK293 [7], > 20 µM (inactive).
`CCOC(=O)N1CCC(NS(=O)(=O)c2ccc3c(c2)C(C)(C)C(=O)N3C)CC1`: the AC50 was 11.2 µM (inconclusive) at Cytochrome P450 2C19, 15.8 µM (inconclusive) on Cytochrome P450 3A4 and “inconclusive” on Cytochrome P450 2C9. In addition, in data set [16], the EC50 is > 260 µM (inactive).
`CCc1cc(=O)oc2c3c(cc(OCC(=O)NCCCC(=O)O)c12)OC(C)(C)CC3`: the concentration at half-maximal activity (AC50) is 7.16 µM (active) on Trypsin and 12.1 µM (active) on CAAX prenyl protease 2.
Consider `COc1ccc(-c2c(-c3ccsc3)oc3ccc(N4CCOCC4)cc23)cn1`, for which the AC50 on Trypsin is 9.22 µM (active).
Take `COc1cc(/C=N/NC(=O)C2c3ccccc3Oc3ccccc32)ccc1O`: the IC50 in data set [1] is > 64 µM (inactive).
On to `Cc1ccc(/C=N/NC(=O)c2nnn(-c3nonc3N)c2C(C)C)o1`, for which the AC50 on CAAX prenyl protease 2 was 2.96 µM (active).
